Data published in patent publication US3992391A, “1,3-Disubstituted thiourea compounds and preparation thereof” (priority 1972, dated 1976).
Counter-ions that a name gives are not always drawn.

Legend:
phosphorylase [1] = assay: Brain phosphorylase after triethyl tin sulfate cerebral edema; format: in vivo; conditions: rats
Protocol: (§1) Cerebral edema was induced in rats by a triethyl tin sulfate (5.0 mg/kg, i.p.) made on the whole brain. Edema was measured by the increase in water content, lactate, phosphorylase activity and the decrease in glycogen, Na^+, K^+ - ATPase activity of the whole brain.
(§2) 1-(3'-Pyridyl)-3-(2'-hydroxyethyl)thiourea HCl was given 1 hour before and 24, 48 hours after the lesion treatment and the animals were killed by decapitation 72 hours after the lesion treatment.

[2] = Prolonging effect on lethal time under various hypoxic conditions (mice and rats, all tests together); format: in vivo, mice (dd-strain) and rats (wister-strain); conditions: 100, 300 mg/kg p.o., 100 mg/kg s.c., and 30 mg/kg i.v.
[3] = test system: cerebral carbohydrate and lactate metabolism; assay: Brain glycogen and lactate after triethyl tin sulfate cerebral edema; format: in vivo; conditions: rats
Protocol: as §1, §2

[4] = Hypoxia test (mouse), normal pressure, survival time; format: in vivo, male mice (dd-strain); conditions: 1.5 % O2 + 98.5 % N2
Protocol: (§3) Male mice (dd-strain) and rats (wister-strain) were taken to a closed room which was filled with a gas mixture consisting of 1.5 % oxygen and 98.5 % nitrogen, or was conditioned in reduced atmospheric pressure (145 mmHg). In the other hand, mice and rats were given sodium cyanide (10 mg/kg, i.p.). These animals died after a few minutes in such conditions. 1-(3'-Pyridyl)-3-(2'-hydroxyethyl)thiourea HCl was given 1 hour before these hypoxia tests.
(§4) In the Tables data mean the increase percent of the survival time to that of control.

Acute toxicity = format: in vivo; conditions: for LD50: mouse, in vivo, dd-strain male mice
Protocol: Acute toxicity of 1-(3'-pyridyl)-3-(2'-hydroxyethyl)thiourea hydrochloride was determined in dd-strain male mice.

Na^+, K^+ - ATPase [5] = assay: Cerebral Na^+, K^+ - ATPase after cold injury (freezing lesion cerebral edema); format: in vivo; conditions: rats
Protocol: (§5) Cerebral edema was induced in rats by a freezing lesion (dry ice) made on the exposed dura of unilateral hemisphere. Edema was measured by the increase in water content of gray and white matter, the increase in phosphorylase activity and the decrease in Na^+, K^+ - ATPase activity of the injured brain. 1-(3'-Pyridyl)-3-(2'-hydroxyethyl)thiourea HCl was given 1 hour before and 24 hours after, and the animals were killed by decapitation 48 hours after the lesion treatment.

Na^+, K^+ - ATPase [6] = assay: Brain Na^+, K^+ - ATPase after triethyl tin sulfate cerebral edema; format: in vivo; conditions: rats
Protocol: as §1, §2

[7] = Haemodynamic action in anesthetized dogs; format: in vivo
Protocol: To study of 1-(3'-pyridyl)-3-(2'-hydroxyethyl)thiourea HCl on the haemodynamic action, five dogs of either sex were used under sodium pentobarbital anesthesia (30 mg/kg i.v.), the common carotid artery blood flow and the femoral artery blood flow were measured by the electromagnetic flow meter and the systolic blood pressure in the femoral artery was recorded with the pressure transducer.

[8] = Hypoxia test (rat), KCN, survival time; format: in vivo, rats (wister-strain); conditions: KCN 10 mg/kg i.p.
[9] = Brain water content after triethyl tin sulfate cerebral edema; format: in vivo; conditions: rats; for H2O, Gray: gray matter; for H2O, White: white matter
Protocol: as §1, §2

[10] = Cerebral water content after cold injury (freezing lesion cerebral edema); format: in vivo; conditions: rats
Protocol: as §5

phosphorylase [11] = assay: Cerebral phosphorylase after cold injury (freezing lesion cerebral edema); format: in vivo; conditions: rats
Protocol: as §5

[12] = Hypoxia test (mouse), reduced pressure, survival time; format: in vivo, male mice (dd-strain); conditions: reduced pressure 145 mmHg
Protocol: as §3, §4

[13] = Hypoxia test (rat), normal pressure, survival time; format: in vivo, rats (wister-strain); conditions: 1.5 % O2 + 98.5 % N2
Protocol: as §3, §4

OCCNC(=S)Nc1cccnc1 [1-(3'-pyridyl)-3-(2'-hydroxyethyl)thiourea hydrochloride]
Phosphorylase A/T × 100 (Active phosphorylase/Total phosphorylase) (phosphorylase [1]; 30 mg/kg p.o.): 73.3
Phosphorylase, Active (phosphorylase [1]; 30 mg/kg p.o.): 0.197 units/g
Phosphorylase A/T × 100 (Active phosphorylase/Total phosphorylase) (phosphorylase [1]; 100 mg/kg p.o.): 71.5
Phosphorylase, Active (phosphorylase [1]; 100 mg/kg p.o.): 0.192 units/g
Phosphorylase A/T × 100 (Active phosphorylase/Total phosphorylase) (phosphorylase [1]; 300 mg/kg p.o.): 67.8
Phosphorylase, Active (phosphorylase [1]; 300 mg/kg p.o.): 0.187 units/g
survival in comparison with the survival time of each control group [2]: survived twice or more
Glycogen ([3]; 30 mg/kg p.o.): 1.03 mg/g
Lactate ([3]; 30 mg/kg p.o.): 72.5 µg/g
Glycogen ([3]; 100 mg/kg p.o.): 1.17 mg/g
Lactate ([3]; 100 mg/kg p.o.): 65.5 µg/g
Glycogen ([3]; 300 mg/kg p.o.): 1.27 mg/g
Lactate ([3]; 300 mg/kg p.o.): 61.0 µg/g
effect on the decrease in glycogen level of the injured brain ([3]; 100 and 300 mg/kg orally): antagonized
effect on the increase in lactate level of the injured brain ([3]; 100 and 300 mg/kg orally): antagonized
increase percent of the survival time to that of control ([4]; 30 mg/kg i.v.): 164%
increase percent of the survival time to that of control ([4]; 30 mg/kg p.o.): 105%
increase percent of the survival time to that of control ([4]; 100 mg/kg p.o.): 165%
increase percent of the survival time to that of control ([4]; 100 mg/kg s.c.): 147%
increase percent of the survival time to that of control ([4]; 300 mg/kg p.o.): 231%
acute lethal toxic symptoms (Acute toxicity; dose of LD50 or more): sedation and paralysis
LD50 (Acute toxicity; iv): 640 mg/kg
LD50 (Acute toxicity; po): > 2000 mg/kg
LD50 (Acute toxicity; sc): 1350 mg/kg
ATPase (Na^+, K^+ - ATPase [5]; 100 mg/kg p.o.): 1.180 ± 0.094 μ moles Pi/g/hr
ATPase (Na^+, K^+ - ATPase [5]; 300 mg/kg p.o.): 1.226 ± 0.080 μ moles Pi/g/hr
effect on the decrease in Na^+, K^+ - ATPase activity (Na^+, K^+ - ATPase [5]; 300 mg/kg p.o.): protective effect
ATPase (Na^+, K^+ - ATPase [6]; 30 mg/kg p.o.): 1.146 μ moles Pi/g/hr
ATPase (Na^+, K^+ - ATPase [6]; 100 mg/kg p.o.): 1.193 μ moles Pi/g/hr
ATPase (Na^+, K^+ - ATPase [6]; 300 mg/kg p.o.): 1.246 μ moles Pi/g/hr
effect on the decrease in Na^+, K^+ - ATPase activity of the injured brain (Na^+, K^+ - ATPase [6]; 100 and 300 mg/kg orally): antagonized
haemodynamic effects in comparison with papaverine hydrochloride [7]: relatively weak
action to the common carotid artery blood flow ([7]; 0.1 - 1.0 mg/kg intra-common carotid artery): 12 - 39%
carotid artery blood flow increase ([7]; 3 - 30 mg/kg intravenously): 6 - 24%
femoral artery blood flow increase ([7]; 3 - 30 mg/kg intravenously): 4 - 18%
blood pressure decrease ([7]; 3 - 30 mg/kg intravenously, systolic, femoral artery): 8 - 14%
increase percent of the survival time to that of control ([8]; 30 mg/kg i.v.): 174%
increase percent of the survival time to that of control ([8]; 30 mg/kg p.o.): 45%
increase percent of the survival time to that of control ([8]; 100 mg/kg p.o.): 116%
increase percent of the survival time to that of control ([8]; 100 mg/kg s.c.): 169%
increase percent of the survival time to that of control ([8]; 300 mg/kg p.o.): 187%
H2O, Gray ([9]; 30 mg/kg p.o.): 81.6%
H2O, White ([9]; 30 mg/kg p.o.): 79.5%
H2O, Gray ([9]; 100 mg/kg p.o.): 80.2%
H2O, White ([9]; 100 mg/kg p.o.): 78.3%
H2O, Gray ([9]; 300 mg/kg p.o.): 79.4%
H2O, White ([9]; 300 mg/kg p.o.): 77.8%
H2O, Gray matter ([10]; 100 mg/kg p.o.): 81.5%
H2O, White matter ([10]; 100 mg/kg p.o.): 80.3%
effect on the increase in water content ([10]; 300 mg/kg p.o.): protective effect
H2O, Gray matter ([10]; 300 mg/kg p.o.): 79.7%
H2O, White matter ([10]; 300 mg/kg p.o.): 79.5%
Phosphorylase A/T × 100 (Active phosphorylase/Total phosphorylase) (phosphorylase [11]; 100 mg/kg p.o.): 68.5 ± 2.5
Phosphorylase, Active (phosphorylase [11]; 100 mg/kg p.o.): 0.242 ± 0.019 units/g
Phosphorylase A/T × 100 (Active phosphorylase/Total phosphorylase) (phosphorylase [11]; 300 mg/kg p.o.): 66.4 ± 2.7
Phosphorylase, Active (phosphorylase [11]; 300 mg/kg p.o.): 0.220 ± 0.057 units/g
effect on the increase in phosphorylase activity (phosphorylase [11]; 300 mg/kg p.o.): protective effect
increase percent of the survival time to that of control ([12]; 30 mg/kg i.v.): 141%
increase percent of the survival time to that of control ([12]; 30 mg/kg p.o.): 35%
increase percent of the survival time to that of control ([12]; 100 mg/kg p.o.): 64%
increase percent of the survival time to that of control ([12]; 100 mg/kg s.c.): 128%
increase percent of the survival time to that of control ([12]; 300 mg/kg p.o.): 132%
increase percent of the survival time to that of control ([13]; 30 mg/kg i.v.): 148%
increase percent of the survival time to that of control ([13]; 30 mg/kg p.o.): 36%
increase percent of the survival time to that of control ([13]; 100 mg/kg p.o.): 75%
increase percent of the survival time to that of control ([13]; 100 mg/kg s.c.): 192%
increase percent of the survival time to that of control ([13]; 300 mg/kg p.o.): 153%
